Source: PMC4511920 (Molecular cancer research : MCR, 2015)
pIC50: −log10 of the molar value.

How the values were obtained:
[1] = test system: DYRK1B; conditions: Target DYRK1B; NCGC compounds; cited from earlier work
[2] = test system: endogenous NKX3.1 in LNCaP cells; test: Endogenous NKX3.1 half-life in LNCaP cells exposed to cycloheximide, immunoblot; format: cell-based, human
[3] = molecular target: DYRK and CLK family kinases; conditions: cited from earlier work

Row | Structure (SMILES) | pIC50 [1] | Effect on NKX3.1 half-life / degradation (in words) [2] | Kinase specificity (in words) [3]
1 | Cc1nc(CNc2ncnc3ccc(-c4ccc5c(c4)OCO5)cc23)cs1 [NCGC00185963] | 5.82 | – | –
2 | Cc1nc(CN(C)c2ncnc3ccc(-c4ccc5c(c4)OCO5)cc23)cs1 [NCGC00185981] | 7.60 | most active compound | specificity against both DYRK and CLK family kinases
3 | c1coc(CCNc2ncnc3ccc(-c4ccc5c(c4)OCO5)cc23)c1 [NCGC00185976] | 6.99 | – | –
4 | CN(Cc1cccs1)c1ncnc2ccc(-c3ccc4c(c3)OCO4)cc12 [NCGC00185984] | 7.14 | – | no specificity for CLK kinases
